Experimental data taken from patent US6737383B1, “Herbicidal oxadiazolidines” (priority 1999, dated 2004).

Key:
[1] = tested on: blackgrass; experiment: Test B pre/postemergence blackgrass; format: in vivo, Alopecurus myosuroides
Procedure, shortened: (§1)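 Response is a visual 0-to-10 score relative to untreated plants, where 0 means no effect and 10 means complete control, taken twelve to sixteen days after application. Treatments went onto soil at planting and onto foliage of 1- to 4-leaf plants, using a surfactant-containing non-phytotoxic solvent.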

[2] = tested on: surinam grass; experiment: Test B pre/postemergence surinam grass; format: in vivo, Brachiaria decumbens
Procedure, shortened: as §1

[3] = tested on: bedstraw; experiment: Test B pre/postemergence bedstraw; format: in vivo, Galium aparine
Procedure, shortened: as §1

[4] = tested on: bamyardgrass; experiment: Test B flood test barnyardgrass; format: in vivo, Echinochloa crus-galli
Procedure, shortened: (§2)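 Flood test on plants grown to the 2-leaf stage; treated plants kept in greenhouse twelve to sixteen days, then visually rated against controls on a 0 (no effect) to 10 (complete control) scale.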

[5] = tested on: smallflower flatsedge; experiment: Test B flood test smallflower flatsedge; format: in vivo, Cyperus difformis
Procedure, shortened: as §2

[6] = tested on: purple nutsedge; experiment: Test B pre/postemergence purple nutsedge; format: in vivo, Cyperus rotundus
Procedure, shortened: as §1

[7] = tested on: morningglory; experiment: Test B pre/postemergence morningglory; format: in vivo, Ipomoea hederacea
Procedure, shortened: as §1

[8] = tested on: pigweed; experiment: Test B pre/postemergence pigweed; format: in vivo, Amaranthus retroflexus
Procedure, shortened: as §1

[9] = tested on: wild oat; experiment: Test B pre/postemergence wild oat; format: in vivo, Avena fatua
Procedure, shortened: as §1

[10] = tested on: rape; experiment: Test B pre/postemergence rape; format: in vivo, Brassica napus
Procedure, shortened: as §1

[11] = tested on: cocklebur; experiment: Test B pre/postemergence cocklebur; format: in vivo, Xanthium strumarium
Procedure, shortened: as §1

[12] = tested on: velvetleaf; experiment: Test B pre/postemergence velvetleaf; format: in vivo, Abutilon theophrasti
Procedure, shortened: as §1

[13] = tested on: soybean; experiment: Test B pre/postemergence soybean; format: in vivo, Glycine max
Procedure, shortened: as §1

[14] = tested on: sugar beet; experiment: Test B pre/postemergence sugar beet; format: in vivo, Beta vulgaris
Procedure, shortened: as §1

[15] = tested on: corn; experiment: Test B pre/postemergence corn; format: in vivo, Zea mays
Procedure, shortened: as §1

[16] = tested on: rice; experiment: Test B flood test rice; format: in vivo, Oryza sativa
Procedure, shortened: as §2

[17] = Preemergence, Rate 62 g/ha, scale of 0 to 10 where 0 is no effect and 10 is complete control
[18] = Preemergence, Rate 125 g/ha, 0 is no effect, 10 is complete control
[19] = Preemergence, Rate 250 g/ha, scale 0 to 10, 0 is no effect, 10 is complete control
[20] = Preemergence, Rate 500 g/ha, scale of 0 to 10 where 0 is no effect and 10 is complete control
[21] = Rate 62 g/ha, Postemergence, scale of 0 to 10 where 0 is no effect and 10 is complete control
[22] = Rate 125 g/ha, Postemergence, scale 0 to 10
[23] = Rate 500 g/ha, Postemergence, scale 0 to 10
[24] = Rate 62 g/ha, headed Pre-emergence (flood test species), scale 0 to 10 (0 no effect, 10 complete control)
[25] = Rate 125 g/ha, Pre-emergence, flood test species, scale 0 to 10 where 0 is no effect and 10 is complete control
[26] = Rate 250 g/ha, Pre-emergence, flood-test species, scale 0 to 10, 0 is no effect, 10 is complete control
[27] = Rate 500 g/ha, Pre-emergence, flood test species, scale 0 to 10 (0 no effect, 10 complete control)

With `CC(C)N(C(=O)n1oc(=O)n(Cc2ccco2)c1=O)c1ccc(F)cc1` [Compound 207] the “Blackgrass plant response rating” value [1, 17] was 0, the “Blackgrass plant response rating (0 to 10 scale)” value [1, 18] was 0 and the “Blackgrass plant response rating” value [1, 19] was 4. The “Plant response rating, Blackgrass” value [1, 20] was 7, the “Blackgrass plant response rating” value [1, 21] was 0 and the “Blackgrass plant response rating” value [1, 22] was 2. The “Plant response rating (0 to 10; 0 is no effect, 10 is complete control), Blackgrass” value ([1]; Rate 250 g/ha, Postemergence) was 2, the “Blackgrass plant response rating” value [1, 23] was 4 and the “B. signalgrass plant response rating” value [2, 17] was 0. The “B. signalgrass plant response rating (0 to 10 scale)” value [2, 18] was 0, the “B. signalgrass plant response rating” value [2, 19] was 0 and the “Plant response rating, B. signalgrass” value [2, 20] was 0. For the same compound, the “B. signalgrass plant response rating” value [2, 21] was 0, the “B. signalgrass plant response rating” value ([2]; Rate 125 g/ha, Postemergence, scale 0 (no effect) to 10 (complete control)) was 0 and the “Plant response rating, B. signalgrass” value ([2]; Rate 250 g/ha, Postemergence, scale 0 to 10, 0 is no effect, 10 is complete control) was 0. The “B. signalgrass plant response rating” value ([2]; Rate 500 g/ha, Postemergence, scale 0 to 10, 0 no effect, 10 complete control) was 0, the “Bedstraw plant response rating” value [3, 17] was 0 and the “Bedstraw plant response rating (0 to 10 scale)” value [3, 18] was 0. For the same compound, the “Bedstraw plant response rating” value [3, 19] was 0, the “Plant response rating, Bedstraw” value [3, 20] was 0 and the “Bedstraw plant response rating” value [3, 21] was 0. For the same compound, the “Bedstraw plant response rating” value [3, 22] was 0, the “Plant response rating (0 to 10; 0 is no effect, 10 is complete control), Bedstraw” value ([3]; Rate 250 g/ha, Postemergence) was 5 and the “Bedstraw plant response rating” value [3, 23] was 5. The “Barnyardgrass plant response rating” value [4, 24] was 0, the “Barnyardgrass plant response rating” value [4, 25] was 0 and the “Barnyardgrass plant response rating” value [4, 26] was 2. For the same compound, the “Barnyardgrass plant response rating” value [4, 27] was 7, the “S. Flatsedge plant response rating” value [5, 24] was 0 and the “S. Flatsedge plant response rating” value [5, 25] was 0. The “S. Flatsedge plant response rating” value [5, 26] was 0, the “S. Flatsedge plant response rating” value [5, 27] was 0 and the “Nutsedge plant response rating” value [6, 17] was 0. For the same compound, the “Nutsedge plant response rating (0 to 10 scale)” value [6, 18] was 0, the “Nutsedge plant response rating” value [6, 19] was 0 and the “Plant response rating, Nutsedge” value [6, 20] was 0. The “Nutsedge plant response rating” value [6, 21] was 0, the “Nutsedge plant response rating” value [6, 22] was 0 and the “Plant response rating (0 to 10; 0 is no effect, 10 is complete control), Nutsedge” value ([6]; Rate 250 g/ha, Postemergence) was 0. For the same compound, the “Nutsedge plant response rating” value [6, 23] was 0, the “Morningglory plant response rating” value [7, 17] was 0 and the “Morningglory plant response rating (0 to 10 scale)” value [7, 18] was 0. For the same compound, the “Morningglory plant response rating” value [7, 19] was 0, the “Plant response rating, Morningglory” value [7, 20] was 0 and the “Morningglory plant response rating” value [7, 21] was 0. For the same compound, the “Morningglory plant response rating” value [7, 22] was 2, the “Plant response rating (0 to 10; 0 is no effect, 10 is complete control), Morningglory” value ([7]; Rate 250 g/ha, Postemergence) was 2 and the “Morningglory plant response rating” value [7, 23] was 3. The “Redroot pigweed plant response rating” value [8, 17] was 0, the “Redroot pigweed plant response rating (0 to 10 scale)” value [8, 18] was 0 and the “Redroot pigweed plant response rating” value [8, 19] was 2. For the same compound, the “Plant response rating, Redroot pigweed” value [8, 20] was 8, the “Redroot pigweed plant response rating” value [8, 21] was 0 and the “Redroot pigweed plant response rating” value [8, 22] was 0. The “Plant response rating (0 to 10; 0 is no effect, 10 is complete control), Redroot pigweed” value ([8]; Rate 250 g/ha, Postemergence) was 0, the “Redroot pigweed plant response rating” value [8, 23] was 0 and the “Wild oats plant response rating” value [9, 17] was 0. The “Wild oats plant response rating” value [9, 19] was 0, the “Plant response rating, Wild oats” value [9, 20] was 0 and the “Wild oats plant response rating” value [9, 21] was 0. The “Wild oats plant response rating” value [9, 22] was 0, the “Plant response rating (0 to 10; 0 is no effect, 10 is complete control), Wild oats” value ([9]; Rate 250 g/ha, Postemergence) was 0 and the “Rape plant response rating” value [10, 17] was 0. The “Rape plant response rating (0 to 10 scale)” value [10, 18] was 0, the “Rape plant response rating” value [10, 19] was 0 and the “Plant response rating, Rape” value [10, 20] was 2. For the same compound, the “Rape plant response rating” value [10, 21] was 0, the “Rape plant response rating” value [10, 22] was 0 and the “Plant response rating (0 to 10; 0 is no effect, 10 is complete control), Rape” value ([10]; Rate 250 g/ha, Postemergence) was 0. The “Rape plant response rating” value [10, 23] was 2, the “Cocklebur plant response rating” value [11, 17] was 0 and the “Cocklebur plant response rating (0 to 10 scale)” value [11, 18] was 0. For the same compound, the “Cocklebur plant response rating” value [11, 19] was 0, the “Plant response rating, Cocklebur” value [11, 20] was 0 and the “Cocklebur plant response rating” value [11, 21] was 0. For the same compound, the “Cocklebur plant response rating” value [11, 22] was 0, the “Plant response rating (0 to 10; 0 is no effect, 10 is complete control), Cocklebur” value ([11]; Rate 250 g/ha, Postemergence) was 0 and the “Cocklebur plant response rating” value [11, 23] was 3. The “Velvetleaf plant response rating” value [12, 17] was 0, the “Velvetleaf plant response rating” value [12, 19] was 0 and the “Plant response rating, Velvetleaf” value [12, 20] was 5. The “Velvetleaf plant response rating” value [12, 21] was 0, the “Velvetleaf plant response rating” value [12, 22] was 1 and the “Plant response rating (0 to 10; 0 is no effect, 10 is complete control), Velvetleaf” value ([12]; Rate 250 g/ha, Postemergence) was 1. The “Soybean plant response rating” value [13, 17] was 0, the “Soybean plant response rating (0 to 10 scale)” value [13, 18] was 0 and the “Soybean plant response rating” value [13, 19] was 0. For the same compound, the “Plant response rating, Soybean” value [13, 20] was 0, the “Soybean plant response rating” value [13, 21] was 1 and the “Soybean plant response rating” value [13, 22] was 2. For the same compound, the “Plant response rating (0 to 10; 0 is no effect, 10 is complete control), Soybean” value ([13]; Rate 250 g/ha, Postemergence) was 2, the “Soybean plant response rating” value [13, 23] was 5 and the “Sugarbeets plant response rating” value [14, 17] was 0. The “Sugarbeets plant response rating (0 to 10 scale)” value [14, 18] was 0, the “Sugarbeets plant response rating” value [14, 19] was 0 and the “Plant response rating, Sugarbeets” value [14, 20] was 0. For the same compound, the “Sugarbeets plant response rating” value [14, 21] was 0, the “Sugarbeets plant response rating” value [14, 22] was 0 and the “Plant response rating (0 to 10; 0 is no effect, 10 is complete control), Sugarbeets” value ([14]; Rate 250 g/ha, Postemergence) was 0. For the same compound, the “Sugarbeets plant response rating” value [14, 23] was 2, the “Corn plant response rating” value [15, 17] was 0 and the “Corn plant response rating (0 to 10 scale)” value [15, 18] was 0. The “Corn plant response rating” value [15, 19] was 0, the “Plant response rating, Corn” value [15, 20] was 0 and the “Corn plant response rating” value [15, 21] was 0. For the same compound, the “Corn plant response rating” value [15, 22] was 0, the “Plant response rating (0 to 10; 0 is no effect, 10 is complete control), Corn” value ([15]; Rate 250 g/ha, Postemergence) was 0 and the “Corn plant response rating” value [15, 23] was 0. For the same compound, the “Rice plant response rating” value [16, 24] was 0, the “Rice plant response rating” value [16, 25] was 0 and the “Rice plant response rating” value [16, 26] was 0. The “Rice plant response rating” value [16, 27] was 0.
